This note sets out measurements from patent publication US10383880B2 (Reset Therapeutics, Inc., priority 2012, dated 2019).

The term EC50 denotes the concentration giving half of the maximal effect. Higher therefore signals lower potency in that assay.

The assay has as its system Per2-dLuc U2OS reporter cells. Description: Per2 assay for evaluating the potency of test compounds (high-throughput circadian assay). To be noted: Homo sapiens, U2OS, stable U2OS reporter cells harboring Per2-dLuc; luminescence monitored over 4-5 days at 35° C. In kind it is cell-based. How it is done:
Compounds were screened by using a high-throughput circadian assay system as previously described in Zhang, E. E. et al. Cell, 2009, 139, 199-210. In brief, stable U2OS reporter cells harboring Per2-dLuc were plated at a density of 8,000 cells/well in Corning 96-well, solid white, flat bottom, TC-treated microplates (Corning®), and incubated for 24 hours at 37° C. in the presence of 5% CO2. The cells were then synchronized by serum shock by media exchange to a minimal explant media (10 mM HEPES (pH 7.0), 2% B27, 1×PSG (Invitrogen®), and 1.0 mM beetle luciferin (Promega®)) followed by the addition of the compounds of formula I dissolved in dimethylsulfoxide (0.5% final dimethylsulfoxide concentration). Gene expression was monitored by measuring luminescence (TecanR M200) over 4-5 days at 35° C. The period, amplitude, and phase of the associated circadian rhythms were determined using Multicycle™ software (Actimetrics, Inc). EC50 values of the compounds of formula I were calculated using Graphpad™ (Prism®).

Compound `CC1CCC(N(CC(O)Cn2c3ccccc3c3ccccc32)S(C)(=O)=O)CC1` (stereo not drawn) [Compound 126, N-(3-(9H-Carbazol-9-yl)-2-hydroxypropyl)-N-(4-methylcyclohexyl)methanesulfonamide] yielded an EC50 of 425 nM.

For `CCCc1ccc(N(CC(O)Cn2c3ccc(F)cc3c3cc(F)ccc32)S(C)(=O)=O)cc1` (stereo not drawn) [Compound 200, N-(3-(3,6-Difluoro-9H-carbazol-9-yl)-2-hydroxypropyl)-N-(4-propylphenyl)methanesulfonamide], the EC50 is 1890 nM. `CCN1CCN(CC(O)Cn2c3ccc(F)cc3c3cc(F)ccc32)S1(=O)=O` (stereo not drawn) [Compound 216] showed an EC50 of 150 nM. As for `CS(=O)(=O)N(CC(O)Cn1c2ccccc2c2ccccc21)CC1CC2CCC1C2` (stereo not drawn) [Compound 75, N-(3-(9H-Carbazol-9-yl)-2-hydroxypropyl)-N-(bicyclo[2.2.1]heptan-2-ylmethyl)methanesulfonamide], the figure is 842 nM. The compound `CS(=O)(=O)N(CC(O)Cn1c2ccccc2c2ccccc21)c1cccc2ccccc12` (stereo not drawn) [Compound 27, N-(3-(9H-Carbazol-9-yl)-2-hydroxypropyl)-N-(naphthalen-1-yl)methanesulfonamide] showed an EC50 of 250 nM. For `CS(=O)(=O)NCC(O)Cn1c2ccccc2c2ccccc21` (stereo not drawn) [Compound 113, N-(3-(9H-Carbazol-9-yl)-2-hydroxypropyl)methanesulfonamide], the half-maximal effective concentration (EC50) was found to be 123 nM.

`COCCCS(=O)(=O)N(Cc1ccco1)CC(O)Cn1c2ccccc2c2ccccc21` (stereo not drawn) [Compound 9, N-(3-(9H-Carbazol-9-yl)-2-hydroxypropyl)-N-(furan-2-ylmethyl)-3-methoxypropane-1-sulfonamide] came in with an EC50 of 2860 nM. Compound `Cc1ccc(S(=O)(=O)N(C)c2ccc(N(CC(O)Cn3c4ccccc4c4ccccc43)S(C)(=O)=O)cc2)cc1` (stereo not drawn) [Compound 31, N-(4-(N-(3-(9H-Carbazol-9-yl)-2-hydroxypropyl)methylsulfonamido)phenyl)-N,4-dimethylbenzenesulfonamide] came in with an EC50 of 1400 nM. The compound `O=S1(=O)N(CC(O)Cn2c3ccc(F)cc3c3cc(F)ccc32)CCCN1C1CCC1` (stereo not drawn) [Compound 228, 2-(3-(3,6-Difluoro-9H-carbazol-9-yl)-2-hydroxypropyl)-6-cyclobutyl-1,2,6-thiadiazinane-1,1-dioxide] came in with an EC50 of 3420 nM. For `O=S1(=O)C(F)CCCN1CC(O)Cn1c2ccccc2c2ccccc21` (stereo not drawn) [Compound 121, 2-(3-(9H-Carbazol-9-yl)-2-hydroxypropyl)-6-fluoro-1,2-thiazinane-1,1-dioxide], the EC50 is 51 nM. The value for `COCc1ccc(N(CC(O)Cn2c3ccc(F)cc3c3cc(F)ccc32)S(C)(=O)=O)cc1` (stereo not drawn) [Compound 209, N-(3-(3,6-Difluoro-9H-carbazol-9-yl)-2-hydroxypropyl)-N-(4-(methoxymethyl)phenyl)methanesulfonamide] was 4810 nM; that for `CS(=O)(=O)N(CC(O)Cn1c2ccccc2c2ccccc21)C1CCCc2ccccc21` (stereo not drawn) [Compound 47, N-(3-(9H-Carbazol-9-yl)-2-hydroxypropyl)-N-(1,2,3,4-tetrahydronaphthalen-1-yl)methanesulfonamide] was 3360 nM.

`CS(=O)(=O)N1CCCC1C(O)Cn1c2ccccc2c2ccccc21` (stereo not drawn) [Compound 241, 2-(9H-Carbazol-9-yl)-1-(1-(methyl-sulfonyl)-pyrrolidin-2-yl)ethanol]: a half-maximal effect (EC50) was put at 488 nM. Compared with the last compound, the EC50 is about 6.9-fold lower.

Take `CS(=O)(=O)N(CC(O)Cn1c2ccc(F)cc2c2cc(F)ccc21)c1ccc(-c2cc[nH]n2)cc1` (stereo not drawn) [Compound 214, N-(4-(1H-Pyrazol-3-yl)phenyl)-N-(3-(3,6-difluoro-9H-carbazol-9-yl)-2-hydroxypropyl)methanesulfonamide]: a half-maximal effect (EC50) was put at 6560 nM. As for `O=S1(=O)NCCN1CC(O)Cn1c2ccc(F)cc2c2cc(F)ccc21` (stereo not drawn) [Compound 175], the figure is 35 nM. Turning to `CC1(C)CCN(CC(O)Cn2c3ccc(F)cc3c3cc(F)ccc32)S1(=O)=O` (stereo not drawn) [Compound 178, 2-(3-(3,6-Difluoro-9H-carbazol-9-yl)-2-hydroxypropyl)-5,5-dimethylisothiazolidine-1,1-dioxide], the EC50 turned out to be 73 nM. This EC50 is about 2.1-fold higher than that of the compound before. As for `CS(=O)(=O)N(Cc1ccco1)CC(O)Cn1c2ccccc2c2ccccc21` (stereo not drawn) [Compound 1, N-(3-(9H-Carbazol-9-yl)-2-hydroxypropyl)-N-(furan-2-ylmethyl)methanesulfonamide], the figure is 340 nM; as for `CS(=O)(=O)N1CCCCC1C(O)Cn1c2ccccc2c2ccccc21` (stereo not drawn) [Compound 242, 2-(9H-Carbazol-9-yl)-1-(1-(methylsulfonyl)-piperidin-2-yl)ethanol], 494 nM. Compound `CC1(N(CC(O)Cn2c3ccccc3c3ccccc32)S(C)(=O)=O)CC1` (stereo not drawn) [Compound 137, N-(3-(9H-Carbazol-9-yl)-2-hydroxypropyl)-N-(1-methylcyclopropyl)methanesulfonamide] came in with a 50% effective concentration (EC50) of 76 nM. Compared with the last compound, the EC50 is about 6.5-fold lower. `COCCN(CC(O)Cn1c2ccc(F)cc2c2ccc(F)cc21)S(C)(=O)=O` (stereo not drawn) [Compound 104, N-(3-(2,6-Difluoro-9H-carbazol-9-yl)-2-hydroxypropyl)-N-(2-methoxyethyl)methanesulfonamide] showed an EC50 of 3500 nM. Against the preceding compound, the EC50 is about 46-fold higher.

As for `O=S1(=O)CCCN1CC(O)Cn1c2cc(F)ccc2c2ccc(F)cc21` (stereo not drawn) [Compound 92, N-(3-(2,7-Difluoro-9H-carbazol-9-yl)-2-hydroxypropyl)-isothiazolidine-1,1-dioxide], the response was half-maximal at 40 nM (EC50).

`CS(=O)(=O)N(Cc1ccco1)CC(O)Cn1c2ccc(F)cc2c2ccc(F)cc21` (stereo not drawn) [Compound 102, N-(3-(2,6-Difluoro-9H-carbazol-9-yl)-2-hydroxypropyl)-N-(furan-2-ylmethyl)methanesulfonamide]: the EC50 came to 3250 nM. The compound `CC(C)N(CC(O)Cn1c2ccc(F)cc2c2ccc(F)cc21)S(C)(=O)=O` (stereo not drawn) [Compound 165, N-(3-(2,6-Difluoro-9H-carbazol-9-yl)-2-hydroxypropyl)-N-isopropylmethanesulfonamide] yielded a 50% effective concentration (EC50) of 95 nM. As to `CS(=O)(=O)N(Cc1ccco1)CC(O)Cn1c2ccccc2c2cccc(F)c21` (stereo not drawn) [Compound 236, N-(3-(1-Fluoro-9H-carbazol-9-yl)-2-hydroxypropyl)-N-(furan-2-ylmethyl)methanesulfonamide], a half-maximal response (EC50) required 620 nM. This EC50 is about 6.5-fold higher than that of the compound before. The value for `CCOCCS(=O)(=O)N(Cc1ccco1)CC(O)Cn1c2ccccc2c2ccccc21` (stereo not drawn) [Compound 12, N-(3-(9H-Carbazol-9-yl)-2-hydroxypropyl)-2-ethoxy-N-(furan-2-ylmethyl)ethanesulfonamide] was 1010 nM. `CC(C)N1CCCN(CC(C)(O)Cn2c3ccc(F)cc3c3cc(F)ccc32)S1(=O)=O` (stereo not drawn) [Compound 218, 2-(3-(3,6-Difluoro-9H-carbazol-9-yl)-2-hydroxy-2-methylpropyl)-6-isopropyl-1,2,6-thiadiazinane-1,1-dioxide] gave an EC50 of 9780 nM. In turn, `O=S(=O)(CCCF)N(Cc1ccco1)CC(O)Cn1c2ccccc2c2ccccc21` (stereo not drawn) [Compound 10, N-(3-(9H-Carbazol-9-yl)-2-hydroxypropyl)-3-fluoro-N-(furan-2-ylmethyl)propane-1-sulfonamide] displayed an EC50 of 1130 nM. Compound `O=S1(=O)CCCN1C[C@H](O)Cn1c2ccccc2c2ccccc21` [Compound 40, (R)-N-(3-(9H-Carbazol-9-yl)-2-hydroxypropyl)isothiazolidine 1,1-dioxide] displayed an EC50 of 179 nM.

For `CS(=O)(=O)N(CC(O)Cn1c2ccccc2c2ccccc21)c1cccc(C(N)=O)c1` (stereo not drawn) [Compound 74, 3-(N-(3-(9H-Carbazol-9-yl)-2-hydroxypropyl)methylsulfonamido)benzamide], a half-maximal response (EC50) required 7620 nM. This EC50 is about 43-fold higher than that of the compound before. As to `CC(C)CS(=O)(=O)N(Cc1ccco1)CC(O)Cn1c2ccccc2c2ccccc21` (stereo not drawn) [Compound 13, N-(3-(9H-Carbazol-9-yl)-2-hydroxypropyl)-N-(furan-2-ylmethyl)-2-methylpropane-1-sulfonamide], the EC50 was found to be 454 nM. This EC50 is about 17-fold lower than that of the compound before. On to `O=S1(=O)CCCCN1C[C@H](O)Cn1c2ccccc2c2ccccc21` [Compound 41, (R)-N-(3-(9H-Carbazol-9-yl)-2-hydroxypropyl)-1,2-thiazinane 1,1-dioxide], for which the EC50 was determined as 343 nM. On to `CC(O)(CN1CCCCS1(=O)=O)Cn1c2ccc(F)cc2c2cc(F)ccc21` (stereo not drawn) [Compound 116, 2-(3-(3,6-Difluoro-9H-carbazol-9-yl)-2-hydroxy-2-methylpropyl)-1,2-thiazinane 1,1-dioxide], for which the EC50 came to 540 nM. `CC1CCN(CC(C)(O)Cn2c3ccc(F)cc3c3cc(F)ccc32)S1(=O)=O` (stereo not drawn) [Compound 179, 2-(3-(3,6-Difluoro-9H-carbazol-9-yl)-2-hydroxy-2-methylpropyl)-5-methylisothiazolidine-1,1-dioxide] displayed an EC50 of 1200 nM.

The compound `CC(O)(CN1CCCN(C2CCCCC2)S1(=O)=O)Cn1c2ccc(F)cc2c2cc(F)ccc21` (stereo not drawn) [Compound 223, 2-(3-(3,6-Difluoro-9H-carbazol-9-yl)-2-hydroxy-2-methylpropyl)-6-cyclohexyl-1,2,6-thiadiazinane-1,1-dioxide] registered an EC50 of 6790 nM. `CC1CC(N(CC(O)Cn2c3ccc(F)cc3c3cc(F)ccc32)S(C)(=O)=O)C1` (stereo not drawn) [Compound 190, N-(3-(3,6-Difluoro-9H-carbazol-9-yl)-2-hydroxypropyl)-N-(3-methylcyclobutyl)methanesulfonamide]: the 50% effective concentration (EC50) was determined as 211 nM. In the case of `CS(=O)(=O)N(CC(O)Cn1c2ccccc2c2ccccc21)c1ccccc1` (stereo not drawn) [Compound 23, N-(3-(9H-Carbazol-9-yl)-2-hydroxypropyl)-N-phenylmethanesulfonamide], it took 90 nM to reach a half-maximal effect (EC50).
